One may read the IC50 as the midpoint of a concentration-inhibition curve. Low readings indicate greater potency in that assay, high ones weaker potency in that assay.

SMILES strings stand for the structures.

The experiment can be described thus: DPPH radical scavenging activity. In kind it is functional. On the technique in general: Loss of DPPH colour is used to gauge radical scavenging.
For the molecule `COCc1c(Br)c(O)c(O)c(Br)c1Br`, the IC50 was determined as 15.5 µM.
`CS(=O)(=O)Cc1c(Br)c(O)c(O)c(Br)c1Br` gave an IC50 of 24 µM.
The value for `COCc1c(Br)c(O)c(O)c(Br)c1Cc1c(Br)c(O)c(O)c(Br)c1Br` was 10.5 µM.
On to `O=C1CCCN1Cc1c(Br)c(O)c(O)c(Br)c1Br`, for which half-maximal inhibition (IC50) required 18.5 µM.
`Cc1c(Br)c(O)c(O)c(Br)c1Br` showed an IC50 of 14 µM.
`Oc1c(O)c(Br)c(Cc2c(Br)c(O)c(O)c(Br)c2Br)c(Br)c1Br` had an IC50 of 8.1 µM.
For `O=Cc1c(Br)c(O)c(O)c(Br)c1Br`, the IC50 came to 24.7 µM.
For `Oc1c(O)c(Br)c(COCc2c(Br)c(O)c(O)c(Br)c2Br)c(Br)c1Br`, the IC50 was found to be 8.5 µM.
The molecule `Oc1c(O)c(Br)c(CCc2c(Br)c(O)c(O)c(Br)c2Br)c(Br)c1Br` came in with an IC50 of 10.2 µM.
The figure for `Cc1cc(C(C)(C)C)c(O)c(C(C)(C)C)c1` [BUTYLATED HYDROXYTOLUENE] is 81.8 µM.

For the origin of these results see ChEMBL document CHEMBL1146218, “Highly brominated mono- and bis-phenols from the marine red alga Symphyocladia latiuscula with radical-scavenging activity” (J Nat Prod, 2007).
